The text below walks through data of patent US4778912A, “Phospholipid derivatives” (priority 1985, dated 1988).

One experiment has as its system Sarcoma 180 cells. The experiment is described as follows: Antitumor action in ICR mice inoculated intraperitoneally with Sarcoma 180 cells (life-span prolongation, 60-day survivors). The format is in vivo. The following applies: for responders at 0.33 mg: read-out: 60th day: No. of survived mice/No. of tested mice (converted); for response vs control in vivo at 0.33 mg: read-out: Life-span prolongation ratio (T/C %).

Another experiment deals with MM46 cells. Description: Antitumor action in C3H/He mice inoculated intraperitoneally with MM46 cells (life-span prolongation, 60-day survivors). It is filed as in vivo. Particulars: for responders at 0.25 mg: 1440 h, read-out: 60th day: No. of survived mice/No. of tested mice (converted); for response vs control in vivo at 0.25 mg: read-out: Life-span prolongation ratio (T/C %).

For experiment [1], the system named is PAF-induced platelet aggregation. Description: Inhibition action against PAF in platelet aggregation (Washed PRP). The format is cell-based, male rabbit. The following applies: Oryctolagus cuniculus. The procedure: Blood was collected from a male rabbit, using a syringe containing 3.15% of citric acid (at a ratio of 1 part to 9 parts of blood) as an anticoagulant and centrifuged at 1,000 r.p.m. at room temperature for 10 minutes to obtain platelet rich plasma (PRP). This PRP was further centrifuged at 1,400 r.p.m. for 15 minutes to obtain platelet pellet, which was then suspended in Ca^++ -free Tyrode (containing 0.25% of gelatin) to prepare Washed PRP. 250 μl of the Washed PRP was stirred at 37° C. for 2 minutes, and admixed with 25 μl of 0.2-0.5 mM Ca^++ solution, followed by stirring for another 30 seconds. Then, a test compound was added to the mixture to a concentration of 3×10^-5 M and after further stirring for 2 minutes, 3×10^-7 M of PAF was added to the mixture. Platelet aggregation was measured by using a platelet aggregometer (manufactured by Rika Denki Co. in Japan). The activity of the test compound was determined from an inhibition ratio for maximum transmission (i.e. maximum aggregation ratio) by PAF in the control PRP.
Inhibition activity against PAF in platelet aggregation was assayed under the same conditions as Test Example 5.

Experiment [2] deals with human myelogenous leukemia cells HL-60. Description: Multiplication-inhibiting effect against human myelogenous leukemia cells HL-60. It is filed as cell-based. The following applies: Table 4, read-out: Multiplication inhibition against HL-60 (IC50). The procedure:
Shown in Table 4 is the multiplication-inhibiting effect (IC50) of the compound of the present invention against human myelogenous leukemia cells HL-60. The assay was conducted according to the method of R. Gallo et al.: Blood, Vol 54, 713 (1979).

In experiment [3] the test system is platelet. Particulars: cited from earlier work.
In a further experiment the test system is tumor. The following applies: background; cited from earlier work.
The subject of experiment [4] is platelet. The experiment is described as follows: Effect on platelet: platelet aggregation (PAF activity) in platelet rich plasma. It is filed as cell-based, male rabbit. The following applies: Oryctolagus cuniculus, Table 5, rabbit PRP, 400,000 cells/1 μl, read-out: PAF activity EC50 (drug concentration causing 50% platelet aggregation). The procedure: This PRP was further centrifuged at 3,000 r.p.m. for 15 minutes to obtain platelet poor plasma (PPP). By using this PPP, the PRP was diluted and so adjusted as to have a constant platelet concentration (400,000 cells/1 μl). […] Platelet aggregation was measured by using a platelet aggregometer (manufactured by Rika Denki Co. in Japan).

Where [5] appears, read: Mus musculus, Sarcoma-180, ip, 1440 h, Table 7, same conditions as Test Example 1-i.
[6] abbreviates: Mus musculus, Sarcoma-180, ip, Table 7, same conditions as Test Example 1-i.
Setting [7] is: Mus musculus, ip, Table 8, same conditions as Test Example 2-i.
Where [8] appears, read: Table 10, same conditions as Test Example 5, read-out: Inhibition ratio.
The mark [9] stands for this setting: Table 6, test compound 3×10^-5 M, PAF 3×10^-7 M, read-out: Inhibition ratio.
Setting [10] is: Sarcoma-180, 1440 h, Table 1, 0.33 mg/mouse ip, three times.
[11] abbreviates: Table 1, 1×10^5 Sarcoma 180 cells ip, 0.33 mg/mouse ip, three times (1 hour, 1 day, 2 days after inoculation), only mice surviving less than 60 days.

pEC50: −log10 of the molar value. Converted amounts (≈) assume the structure as drawn. Where two headings read alike, the source gives them in different places. A value given as a limit tells only on which side of the number the result lay.

Protocol for MM46 cells: (i) C3H/He mice (a group consisting of five mice) were inoculated intraperitoneally with 1×10^4 MM46 cells per mouse, and each mouse was intraperitoneally given 0.25 mg of drug for consecutive 4 days, starting from the second day after the inoculation.
(ii) In the above test, each mouse was inoculated intraperitoneally with 1×10^5 MM46 cells and 0.25 mg of drug was given intraperitoneally to each mouse for consecutive 4 days, starting from the second day after the inoculation.
The assay was carried out under the same conditions as Test Example 2-i.
Protocol for Sarcoma 180 cells: The assay was carried out under the same conditions as Test Example 1-i.

Turning to `CCCCCCCCCCCCCCCCCCC(=O)COCC(COP(=O)([O-])OCCCCCCCCCC[N+](C)(C)C)OC` (stereo not drawn) [Example 6, 2-Methoxy-3-(2-oxoeicocyloxy)propyl 10-trimethylammoniodecyl phosphate], the responders at 0.33 mg in the experiment with Sarcoma 180 cells (setting [5]) is 0%. In the experiment with Sarcoma 180 cells (setting [6]), the response vs control in vivo at 0.33 mg came to 242%. Besides, in the experiment with MM46 cells (setting [7]), the responders at 0.25 mg was 80% and the response vs control in vivo at 0.25 mg is 145%.
As for `COC(COCCCCCCCCCCCCC1CCCCC1)COP(=O)([O-])OCCCCCCCCCC[N+](C)(C)C` (stereo not drawn) [Example 33, 3-(12-Cyclohexyldodecyloxy)-2-methoxypropyl 10-trimethylammoniodecyl phosphate], in the experiment on Sarcoma 180 cells (setting [5]), the responders at 0.33 mg was 0%. For the same molecule, the response vs control in vivo at 0.33 mg in the experiment with Sarcoma 180 cells (setting [6]) amounted to 266%. Besides, the inhibition at 30 µM in experiment [1] (setting [8]) stood at 100%.
With `CCCCCCCCCCCCCCCCCCOCC(COP(=O)([O-])OCCCCCCCCCC[N+](C)(C)C)OC(=S)NC` (stereo not drawn) [Example 9, 2-Methylthiocarbamoyloxy-3-octadecyloxypropyl 10-trimethylammoniodecyl phosphate], in the experiment with MM46 cells (setting [7]), the responders at 0.25 mg was 40% and the response vs control in vivo at 0.25 mg is 170%. Besides, the inhibition at 30 µM in experiment [1] (setting [8]) is 55%.
As for `CCCCCCCCCCCCCCCCCCOCC(COP(=O)([O-])OCCC[N+](C)(C)C)OC(=O)CC(C)=O` (stereo not drawn) [Reference compound 2, reference compound], the 50% inhibitory concentration (IC50) (usually the concentration needed to halve the response being measured) in experiment [2] was 11 µg/mL (≈ 18.1 µM). Besides, the inhibition at 30 µM in experiment [1] (setting [9]) was 0%.
The like results for `CCCCCCCCCCCCCCCCCCOCC(COP(=O)([O-])OCC[N+](C)(C)C)OC(=O)CC(C)=O` (stereo not drawn) [Reference compound 1, reference compound] were, in that order, 6.6 µg/mL (≈ 11.1 µM) and 0%.
In the case of `COC(COCCCCCCCCCCCCCCC(C)C)COP(=O)([O-])OCCCCCCCCCC[N+](C)(C)C` (stereo not drawn) [Example 39, 2-Methoxy-3-(15-methylhexadecyloxy)propyl 10-trimethylammoniodecyl phosphate], the responders at 0.33 mg in the experiment with Sarcoma 180 cells (setting [5]) is 0%. For the same molecule, the response vs control in vivo at 0.33 mg in the experiment with Sarcoma 180 cells (setting [6]) was found to be 265%. In experiment [1] (setting [8]), the inhibition at 30 µM came to 69%.
As for `CCCCCCCCCCCCCCCCCCOCC(COP(=O)([O-])OCCCCCCCC[N+](C)(C)C)OC(=O)NC` (stereo not drawn) [Example 44, 2-Methylcarbamoyloxy-3-octadecyloxypropyl 8-trimethylammoniooctyl phosphate], the inhibition at 30 µM in experiment [1] (setting [8]) turned out to be 100%.
On the same count and under the same terms, the result for `CCCCCCCCCCCCCCCCCCOCC(COP(=O)([O-])OCCCCCCCCCC[N+](C)(C)C)OC(=O)NC` (stereo not drawn) [Example 8, 2-Methylcarbamoyloxy-3-octadecyloxypropyl 10-trimethylammoniodecyl phosphate] reads 100%.
For the molecule `CCCCCCCCCCCCCCCCCCOCC(COP(=O)([O-])OCCCCCCCCCC[N+](C)(C)C)OC` (stereo not drawn) [Example 10, 2-Methoxy-3-octadecyloxypropyl 10-trimethylammoniodecyl phosphate], the responders at 0.33 mg in the experiment on Sarcoma 180 cells (setting [5]) is 0%. Besides, the response vs control in vivo at 0.33 mg in the experiment on Sarcoma 180 cells (setting [6]) worked out at 212%. Moreover, in the experiment with MM46 cells (setting [7]), the responders at 0.25 mg is 40% and the response vs control in vivo at 0.25 mg was found to be 249%. In experiment [1] (setting [8]), the inhibition at 30 µM came to 53%.
On to `CC(=O)CC(=O)OC(COCCCCCCCCCCCCCCC(C)C)COP(=O)([O-])OCCCCCCCCCC[N+](C)(C)C` (stereo not drawn) [Example 43, 2-(Acetoacetyloxy)-3-(15-methylhexadecyloxy)propyl 10-trimethylammoniodecylphosphate], for which the responders at 0.33 mg in the experiment with Sarcoma 180 cells (setting [5]) was 40%. In addition, the response vs control in vivo at 0.33 mg with Sarcoma 180 cells (setting [6]) came out at 128%. In addition, in the experiment on MM46 cells (setting [7]), the responders at 0.25 mg was 0% and the response vs control in vivo at 0.25 mg turned out to be 232%. In addition, the inhibition at 30 µM in experiment [1] (setting [8]) is 100%.
Consider `CCCCCCCCCCCCCCCCCCOCC(COP(=O)([O-])OCC[N+](C)(C)C)OC(=O)N(C)C` (stereo not drawn) [Compound (V)], for which the “platelet activating / platelet aggregation action (in words)” value in the experiment on platelet [3] (background) is reported as “remarkably strong platelet activating activity”.
With `CCCCCCCCCCCCCCCCCCOCC(COP(=O)([O-])OCCCCCCCCCC[N+](C)(C)C)OCC(=O)O` (stereo not drawn) [Example 46, 2-(Carboxymethyloxy)-3-(octadecyloxy)propyl 10-trimethylammoniodecyl phosphate], the responders at 0.33 mg in the experiment on Sarcoma 180 cells (setting [5]) is 0%. In addition, the response vs control in vivo at 0.33 mg in the experiment with Sarcoma 180 cells (setting [6]) was found to be 335%. Further, in the experiment with MM46 cells (setting [7]), the responders at 0.25 mg is 20% and the response vs control in vivo at 0.25 mg was determined as 287%.
For `CCCCCCCCCCCCCCCCCCNC(=O)OCC(COP(=O)([O-])OCC[N+](C)(C)C)OC` (stereo not drawn) [VI, reference compound], the responders at 0.33 mg with Sarcoma 180 cells (setting [10]) is 0%. The response vs control in vivo at 0.33 mg in the experiment on Sarcoma 180 cells (setting [11]) was 202%. In addition, in the experiment with tumor, the “antitumor action (in words)” value is listed as “not sufficient”.
Turning to `CCCCCCCCCCCCCCCCCCOCC(COP(=O)([O-])OCCCCCCCCCC[N+](C)(C)C)OC(=O)CC(C)=O` (stereo not drawn) [Example 3, 2-(Acetoacetyloxy)-3-(octadecyloxy)propyl 10-trimethylammoniodecyl phosphate], the “life-span prolongation ratio (T/C %)” value in the experiment with Sarcoma 180 cells (1 mg/mouse, otherwise as Test Example 1-i) is reported as 369%. The “number of survived mice on the 60th day” value in the experiment with Sarcoma 180 cells (1 mg/mouse, group of 5 mice) is given as 2 mice. In the experiment with Sarcoma 180 cells (setting [10]), the responders at 0.33 mg was 40%. Moreover, the response vs control in vivo at 0.33 mg with Sarcoma 180 cells (setting [11]) was found to be 326%. Moreover, the responders at 0.25 mg in the experiment with MM46 cells (Table 2, 1×10^4 MM46 cells, 0.25 mg/mouse ip, 4 days) is 80%. In addition, the response vs control in vivo at 0.25 mg is 132% in the experiment with MM46 cells (Mus musculus, ip, Table 2, 1×10^4 MM46 cells ip, 0.25 mg/mouse ip for consecutive 4 days from second day, only mice surviving less than 60 days) and 125% with MM46 cells (Mus musculus, ip, Table 3, 1×10^5 MM46 cells ip, 0.25 mg/mouse ip for consecutive 4 days, only mice surviving less than 60 days). The “60th day: No. of survived mice/No. of treated mice” value in the experiment with MM46 cells (Table 3, 1×10^5 MM46 cells, 0.25 mg/mouse ip, 4 days) was 4/5. Further, the IC50 in experiment [2] worked out at 1.5 µg/mL. In experiment [1] (setting [9]), the inhibition at 30 µM was 72%.
As for `CCCCCCCCCCCCCCCCCCNC(=O)OCC(COP(=O)([O-])OCCCCCCCCCC[N+](C)(C)C)OC` (stereo not drawn) [Example 11, 3-Octadecylcarbamoyloxy-2-methoxypropyl 10-trimethylammoniodecyl phosphate], the responders at 0.33 mg in the experiment on Sarcoma 180 cells (setting [5]) was 0%. Besides, the response vs control in vivo at 0.33 mg in the experiment on Sarcoma 180 cells (setting [6]) was determined as 253%. In addition, in the experiment on MM46 cells (setting [7]), the responders at 0.25 mg is 40% and the response vs control in vivo at 0.25 mg was found to be 186%.
Regarding `CCCCCCCCCCCCCCCCCCOCC(COP(=O)([O-])OCCCCCCCCCC[N+](C)(C)C)OCC(C)=O` (stereo not drawn) [Example 18, 3-(Octadecyloxy)-2-(2-oxopropyloxy)propyl 10-trimethylammoniodecyl phosphate], the inhibition at 30 µM in experiment [1] (setting [9]) worked out at 100%. In addition, the pEC50 in the experiment with platelet [4] is less than 4.00.
On to `CCCCCCCCCCCCCCCCCCOCC(COP(=O)([O-])OCCCCCCCC[N+](C)(C)C)OC(=O)CC(C)=O` (stereo not drawn) [Example 29, 2-(Acetoacetoxy)-3-(octadecyloxy)propyl 8-trimethylammoniooctyl phosphate], for which the inhibition at 30 µM in experiment [1] (setting [8]) stood at 96%.
For `CCCCCCCCCCCCCCCCCCOCC(COP(=O)([O-])OCC[N+](C)(C)C)OC(=O)CCC` (stereo not drawn) [Compound (IV), reference compound], the responders at 0.33 mg in the experiment on Sarcoma 180 cells (setting [10]) was 0%. Moreover, in the experiment with Sarcoma 180 cells (setting [11]), the response vs control in vivo at 0.33 mg is 109%. For the same molecule, the “platelet activating action relative to that of PAF (II)” value in the experiment with platelet [3] (Thrombosis Research, 30, 143 (1983)) is reported as “about 1/10”.
